Measurements taken from patent US5405845A, “(Pyrrolidinyl)phenyl carbamate derivatives and use” (priority 1994, dated 1995).

Columns and labels:
[1] = tested on: acetylcholinesterase; assay: ex vivo inhibition acetylcholinesterase assay (modified Ellman); format: in vivo, male Wistar rats
[2] = target: T1, acetylcholinesterase (Rattus norvegicus, UniProt P37136); assay: in vitro inhibition of acetylcholinesterase assay (modified Ellman); format: biochemical, Male Wistar rat (corpora striata homogenate)
T1 construct: corpora striata dissected free, weighed and homogenized in 19 volumes; from tissue; host or cells: corpora striata of male Wistar rats, crude homogenate
T1 sequence (P37136 32-614): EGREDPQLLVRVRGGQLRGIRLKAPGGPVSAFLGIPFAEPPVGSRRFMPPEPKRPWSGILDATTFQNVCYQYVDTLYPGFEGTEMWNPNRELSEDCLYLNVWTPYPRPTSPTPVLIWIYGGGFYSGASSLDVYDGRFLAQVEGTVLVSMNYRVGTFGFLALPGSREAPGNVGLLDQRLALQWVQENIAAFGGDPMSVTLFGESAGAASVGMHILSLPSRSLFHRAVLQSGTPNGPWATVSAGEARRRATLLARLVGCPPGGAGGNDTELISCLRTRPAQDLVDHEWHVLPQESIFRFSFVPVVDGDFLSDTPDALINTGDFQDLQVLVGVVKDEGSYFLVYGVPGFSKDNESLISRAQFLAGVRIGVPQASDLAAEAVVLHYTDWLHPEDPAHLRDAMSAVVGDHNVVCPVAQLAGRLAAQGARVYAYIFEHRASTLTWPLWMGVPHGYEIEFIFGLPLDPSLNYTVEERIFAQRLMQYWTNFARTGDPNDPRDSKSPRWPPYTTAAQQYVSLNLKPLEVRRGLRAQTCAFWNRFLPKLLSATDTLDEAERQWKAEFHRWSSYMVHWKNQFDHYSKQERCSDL
Description: In this assay, a modification of a test described by G. L. Ellman, et al., Biochemical Pharmacology, 7, 88 (1961), the following reagents are prepared and employed:
1.0.05M Phosphate Buffer (pH 7.2)
A solution of monobasic sodium phosphate monohydrate (6.85 g) in distilled water (100 ml) is added to a solution of dibasic sodium phosphate heptahydrate (13.4 g) and distilled water (100 ml) until a pH of 7.2 was attained. The solution was diluted 1 to 10 with distilled water.
The 0.05M Phosphate Buffer (pH 7.2) was added to acetylthiocholine (198 mg) to a total volume of 100 ml, i.e., a quantity sufficient (gs) to 100 ml.
3. 5,5-Dithiobisnitrobenzoic acid in Buffer
The 0.05M Phosphate Buffer (pH 7.2) was added to 5,5-dithiobisnitrobenzoic acid to a total volume of 100 ml, i.e., a quantity sufficient (gs) to 100 ml.
4. Stock Solution of Drug
A 2 millimolar stock solution of the test drug is prepared in a quantity sufficient of either acetic acid or dimethyl sulfoxide to volume with 5,5-Dithiobisnitrobenzoic Acid in Buffer. Stock Solution of Drug is serially diluted (1:10) so that the final cuvette concentration is 10^-4 molar.
Male Wistar rates are decapitated, brains rapidly removed, corpora striata dissected free, weighed and homogenized in 19 volumes (approximately 7 mg protein/ml) of 0.05M phosphate Buffer (pH 7.2) using a Potter-Elvehjem homogenizer. A 25 μl aliquot of this suspension is added to 1 ml of the vehicle or various concentrations of the test drug and preincubated for 10 minutes at 37° C. Enzyme activity is measured with a Beckman DU-50 spectrophotometer with the following software and instrument settings:
1. Kinetics Soft-Pac™ Module #598273;
6. Cuvettes--2 ml cuvettes using auto 6-sampler;
7. Blank--1 for each substrate concentration;
8. Interval time--15 seconds (15 or 30 seconds for kinetics);
9. Total time--5 minutes (5 or 10 minutes for kinetics);
14 12. Slope--increasing;
13. Results--yes (gives slope); and
Reagents are added to the blank and sample cuvettes as follows:
1. Blank: 0.8 ml 5,5-Dithiobisnitrobenzoic Acid 0.8 ml Substrate in Buffer
2. Control: 0.8 ml 5,5-Dithiobisnitrobenzoic Acid/Enzyme 0.8 ml Substrate in Buffer
3. Drug: 0.8 ml 5,5-Dithiobisnitrobenzoic Acid/Drug/Enzyme 0.8 ml Substrate in Buffer
Blank values are determined for each run to control for non-enzymatic hydrolysis of substrate and these values are automatically subtracted by the Kindata program available on kinetics soft-pac module. This program also calculates the rate of absorbance change for each cuvette.
Substrate concentration is 10 millimolar diluted 1:2 in assay yielding final concentration of 5 millimolar. 5,5-Dithiobisnitrobenzoic acid concentration is 0.5 millimolar yielding 0.25 millimolar final concentration. [formula]
IC50 values are calculated from log-probit analysis

Row | Compound | IC50 [2] | other results
1 | CNC(=O)Oc1cccc(C2CCCN2CCc2ccccc2)c1 (stereo not shown) [3-[1-(2-Phenylethyl)-2-pyrrolidinyl]phenyl methylcarbamate] | – | Inhibition of Acetylcholinesterase Activity Percent Inhibition @ 1 hr ([1]; 10 mg/kg per os, forebrain): 25%
2 | CNC(=O)Oc1cccc(C2CCCN2Cc2cccnc2)c1 (stereo not shown) [3-[1-(3-Pyridinylmethyl)-2-pyrrolidinyl]phenyl methylcarbamate] | – | Inhibition of Acetylcholinesterase Activity Percent Inhibition @ 1 hr ([1]; 10 mg/kg per os, forebrain): 51%
3 | O=C(Oc1cccc(C2CCCN2Cc2ccncc2)c1)N1CCc2ccccc2C1 (stereo not shown) [3-[1-(4-Pyridinylmethyl)-2-pyrrolidinyl]phenyl 3,4-dihydro-2(1H)-isoquinoline carbamate hemifumarate] | 0.568 µM | –
4 | CNC(=O)Oc1cccc(C2CCCN2Cc2ccncc2)c1 (stereo not shown) [3-[1-(4-Pyridinylmethyl)-2-pyrrolidinyl]phenyl methylcarbamate] | 0.0244 µM | Inhibition of Acetylcholinesterase Activity Percent Inhibition @ 1 hr ([1]; 10 mg/kg per os, striatum): 80%
5 | CNC(=O)Oc1cccc(C2CCC(=O)N2Cc2ccncc2)c1 (stereo not shown) [3-[1-((4-Pyridinyl)methyl)-5-oxo-2-pyrrolidinyl]phenyl methylcarbamate hemifumarate] | 1.44 µM | –
6 | CCN1CCCC1c1cccc(OC(=O)NC)c1 (stereo not shown) [3-[1-Ethyl-2-pyrrolidinyl]phenyl methylcarbamate] | – | Inhibition of Acetylcholinesterase Activity Percent Inhibition @ 1 hr ([1]; 1 mg/kg per os, forebrain): 73%
7 | CNC(=O)Oc1cccc(C2CCCN2CCN2CCOCC2)c1 (stereo not shown) [3-{1-[2-(4-Morpholinyl)ethyl]-2-pyrrolidinyl}phenyl methylcarbamate bis-fumarate] | 0.529 µM | –
8 | CNC(=O)Oc1cccc(C2CCC(=O)N2CCN2CCOCC2)c1 (stereo not shown) [3-{1-[2-(4-Morpholinyl)ethyl]-5-oxo-2-pyrrolidinyl}phenyl methylcarbamate] | 18.7 µM | –
9 | CNC(=O)Oc1ccc2c(c1)[C@]1(C)CCN(C)[C@@H]1N2C [physostigmine, reference compound] | – | Inhibition of Acetylcholinesterase Activity Percent Inhibition @ 1 hr ([1]; 0.3 mg/kg intraperitoneal, forebrain): 27%
